From ChEMBL document CHEMBL1134799, “4,1-Benzoxazepinone analogues of efavirenz (Sustiva) as HIV-1 reverse transcriptase inhibitors” (Bioorg Med Chem Lett, 2001)

Tests used:
[1] = molecular target: Human immunodeficiency virus type 1 reverse transcriptase (Human immunodeficiency virus 1) (UniProt Q72547)
Description: Compound was evaluated for its ability to inhibit the wild type RF strain of HIV-1

[2] = test system: Human immunodeficiency virus type 1 reverse transcriptase (Human immunodeficiency virus 1), Q72547 [K103N]
Description: Compound was evaluated for its ability to inhibit a virus containing the clinically relevant K103N mutation

[3] = molecular target: T1, Human immunodeficiency virus type 1 reverse transcriptase (Human immunodeficiency virus 1, UniProt Q72547); experiment: Compound was evaluated for its ability to inhibit HIV-1 Reverse Transcriptase in an in vitro enzyme assay
[4] = Total plasma concentration at 24 hr at a dose of 10 mg/kg when administered orally to rhesus monkey; type: ADME, organism-based, Macaca mulatta; set-up: dose 10 mg/kg, route oral; settings: po, read-out: C24h
[5] = Tmax was determined; type: ADME
[6] = Area under curve obtained at a dose of 10 mg/kg when administered orally to rhesus monkey; type: ADME, organism-based, Macaca mulatta; set-up: dose 10 mg/kg, route oral; settings: in vivo, po
[7] = Cmax was determined; type: ADME, organism-based; settings: in vivo
[8] = molecular target: T1, Human immunodeficiency virus type 1 reverse transcriptase; experiment: Inhibition of HIV-1 Reverse Transcriptase in an in vitro enzyme assay

SMILES	IC90 [1]	IC90 [2]	IC50 [3]	concentration at 24 h [4]	Tmax [5]	AUC [6]	Cmax [7]	IC50 [8]
C[C@@H]1O[C@](C#CC2CC2)(C(F)(F)F)c2cc(F)ccc2NC1=O	0.0052 µM	0.333 µM	0.095 µM	–	–	–	–	–
CC1OC(C#CC2CC2)(C(F)(F)F)c2c(ccc(F)c2F)NC1=O (centres undefined)	0.0058 µM	0.075 µM	0.193 µM	–	–	–	–	–
CC[C@@H]1O[C@](C#CC2CC2)(C(F)(F)F)c2cc(F)ccc2NC1=O	0.0053 µM	0.117 µM	0.171 µM	–	–	–	–	–
O=C1Nc2ccc(Cl)cc2C(C#CC2CC2)(C(F)(F)F)OC1CC(F)(F)F (centres undefined)	0.0168 µM	–	0.235 µM	–	–	–	–	–
CCC1OC(/C=C/C2CC2)(C(F)(F)F)c2cc(F)ccc2NC1=O (centres undefined)	0.0025 µM	0.07 µM	0.151 µM	–	–	–	–	–
CCC#CC1(C(F)(F)F)OCC(=O)Nc2ccc(Cl)cc21 (centres undefined)	0.0091 µM	1.76 µM	0.964 µM	–	–	–	–	–
C[C@@H]1O[C@](C#CC2CC2)(C(F)(F)F)c2cc(Cl)ccc2NC1=O (relative stereo)	0.0022 µM	0.029 µM	0.082 µM	1.14 µM	6 h	30 µM·h	1.67 µM	–
CC[C@H]1O[C@](C#CC2CC2)(C(F)(F)F)c2cc(F)ccc2NC1=O	0.0874 µM	–	1.14 µM	–	–	–	–	–
C[C@H]1O[C@](C#CC2CC2)(C(F)(F)F)c2cc(F)ccc2NC1=O	0.189 µM	–	1.94 µM	–	–	–	–	–
CC1OC(/C=C/C2CC2)(C(F)(F)F)c2c(ccc(F)c2F)NC1=O (centres undefined)	0.0052 µM	0.081 µM	0.173 µM	–	–	–	–	–
CCC1OC(/C=C/C2CC2)(C(F)(F)F)c2cc(Cl)ccc2NC1=O (centres undefined)	0.0078 µM	0.013 µM	0.185 µM	–	–	–	–	–
O=C1COC(C#CC2CC2)(C(F)(F)F)c2cc(Cl)ccc2N1 (centres undefined)	0.0091 µM	1.4 µM	0.432 µM	–	–	–	–	–
CC1OC(/C=C/C2CC2)(C(F)(F)F)c2cc(Cl)ccc2NC1=O (centres undefined)	0.0025 µM	0.035 µM	0.046 µM	1.4 µM	11 h	50.8 µM·h	2.36 µM	–
O=C1Nc2ccc(Cl)cc2[C@@](C#CC2CC2)(C(F)(F)F)N1	0.002 µM	0.01 µM	0.032 µM	–	–	–	–	–
O=C1COC(/C=C/C2CC2)(C(F)(F)F)c2cc(Cl)ccc2N1 (centres undefined)	0.0039 µM	0.362 µM	0.108 µM	–	–	–	–	–
O=C1Nc2ccc(Cl)cc2[C@@](/C=C/C2CC2)(C(F)(F)F)N1	0.0021 µM	0.027 µM	0.023 µM	–	–	–	–	–
CCC1OC(C#CC2CC2)(C(F)(F)F)c2cc(Cl)ccc2NC1=O (centres undefined)	0.0084 µM	0.139 µM	–	–	–	–	–	0.391 µM
C[C@H]1O[C@](C#CC2CC2)(C(F)(F)F)c2cc(Cl)ccc2NC1=O	0.007 µM	1.13 µM	0.249 µM	–	–	–	–	–
CC1OC(/C=C/C2CC2)(C(F)(F)F)c2cc(F)ccc2NC1=O (centres undefined)	0.0076 µM	0.118 µM	0.129 µM	–	–	–	–	–
O=C1COC(C#Cc2ccccc2)(C(F)(F)F)c2cc(Cl)ccc2N1 (centres undefined)	0.0243 µM	4.1 µM	3.3 µM	–	–	–	–	–
CC(C)C1OC(C#CC2CC2)(C(F)(F)F)c2cc(Cl)ccc2NC1=O (centres undefined)	0.0207 µM	–	0.597 µM	–	–	–	–	–
O=C1COC(C#Cc2ccoc2)(C(F)(F)F)c2cc(Cl)ccc2N1 (centres undefined)	0.0475 µM	–	2.51 µM	–	–	–	–	–
CCCC1OC(C#CC2CC2)(C(F)(F)F)c2cc(Cl)ccc2NC1=O (centres undefined)	0.0172 µM	–	0.799 µM	–	–	–	–	–
CC(C)C#CC1(C(F)(F)F)OCC(=O)Nc2ccc(Cl)cc21 (centres undefined)	0.0097 µM	0.784 µM	0.423 µM	–	–	–	–	–
